pIC50: −log10 of the molar value.

The term pIC50 denotes −log10 of the IC50, conventionally taken in molar units.

For this test, the target named is T1, c-Met kinase (recombinant c-Met) (Homo sapiens, UniProt P08581).
T1 construct: 0.27 nM recombinant c-Met
T1 sequence (P08581 25-1390): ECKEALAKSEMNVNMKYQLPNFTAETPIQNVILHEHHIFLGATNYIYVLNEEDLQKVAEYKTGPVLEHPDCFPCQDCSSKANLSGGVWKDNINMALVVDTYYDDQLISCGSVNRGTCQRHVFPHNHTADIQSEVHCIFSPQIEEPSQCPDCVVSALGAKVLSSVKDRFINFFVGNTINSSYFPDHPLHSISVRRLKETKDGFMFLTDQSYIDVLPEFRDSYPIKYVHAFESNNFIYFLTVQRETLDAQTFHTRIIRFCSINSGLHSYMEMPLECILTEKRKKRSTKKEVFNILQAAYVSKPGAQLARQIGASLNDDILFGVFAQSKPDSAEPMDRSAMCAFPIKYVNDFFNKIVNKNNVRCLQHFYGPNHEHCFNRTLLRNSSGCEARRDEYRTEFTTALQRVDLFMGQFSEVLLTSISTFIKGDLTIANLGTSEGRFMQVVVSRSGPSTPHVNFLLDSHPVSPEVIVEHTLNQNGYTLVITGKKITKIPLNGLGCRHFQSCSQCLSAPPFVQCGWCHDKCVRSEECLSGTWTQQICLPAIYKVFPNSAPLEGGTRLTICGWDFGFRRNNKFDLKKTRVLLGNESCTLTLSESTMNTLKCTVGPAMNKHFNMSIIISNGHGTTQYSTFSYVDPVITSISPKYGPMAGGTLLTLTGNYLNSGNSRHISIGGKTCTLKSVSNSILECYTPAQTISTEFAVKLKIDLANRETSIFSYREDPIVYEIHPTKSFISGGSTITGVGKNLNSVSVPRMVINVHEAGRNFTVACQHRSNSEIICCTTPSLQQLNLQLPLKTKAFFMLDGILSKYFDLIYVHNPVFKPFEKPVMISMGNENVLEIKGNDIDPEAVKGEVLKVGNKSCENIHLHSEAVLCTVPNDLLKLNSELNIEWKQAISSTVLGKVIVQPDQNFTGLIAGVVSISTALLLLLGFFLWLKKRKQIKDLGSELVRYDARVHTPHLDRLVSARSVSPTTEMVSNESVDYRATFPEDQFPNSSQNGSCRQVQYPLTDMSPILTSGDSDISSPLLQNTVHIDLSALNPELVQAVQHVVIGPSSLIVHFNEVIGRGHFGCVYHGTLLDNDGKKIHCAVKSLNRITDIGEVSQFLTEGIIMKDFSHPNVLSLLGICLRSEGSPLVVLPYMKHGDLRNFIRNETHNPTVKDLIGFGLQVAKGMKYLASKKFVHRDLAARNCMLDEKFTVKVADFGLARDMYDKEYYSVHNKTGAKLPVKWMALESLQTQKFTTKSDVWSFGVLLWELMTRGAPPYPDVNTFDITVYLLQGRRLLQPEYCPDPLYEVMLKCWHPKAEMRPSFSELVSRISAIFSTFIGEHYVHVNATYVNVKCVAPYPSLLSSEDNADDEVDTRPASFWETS
The test can be described thus: In vitro kinase assay I (homogeneous time-resolved fluorescence tyrosine kinase assay). It counts as biochemical. The method, boiled down:
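Biotinylated peptide (0.5 μM) phosphorylated by 0.2 nM recombinant c-Met with 50 μM MgATP, 60 min at room temperature, pH 7.4, 5% DMSO. EDTA stop; HTRF read with Eu-anti-phosphotyrosine antibody and streptavidin-APC. IC50 from 4-parameter logistic fit.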
With `CCOCc1cnc(-c2cccc(Cc3nn(-c4cnn(C)c4)ccc3=O)c2)nc1` [Example 162, 3-{3-[5-(ethoxymethyl)pyrimidin-2-yl]benzyl}-1-(1-methyl-1H-pyrazol-4-yl)pyridazin-4(1H)-one], the pIC50 was > 7.00.
The result for `CCOc1cnc(-c2cccc(Cc3nn(-c4cn[nH]c4)ccc3=O)c2)nc1` [Example 195, 3-[3-(5-Ethoxypyrimidin-2-yl)benzyl]-1-(1H-pyrazol-4-yl)pyridazin-4(1H)-one] reads > 7.00; that for `Cn1cc(-n2ccc(=O)c(Cc3cccc(-c4ncc(C(=O)NCC5COCCO5)cn4)c3)n2)cn1` (racemic) [Example 474, rac-N-(1,4-Dioxan-2-ylmethyl)-2-(3-{[1-(1-methyl-1H-pyrazol-4-yl)-4-oxo-1,4-dihydropyridazin-3-yl]methyl}phenyl)pyrimidine-5-carboxamide], > 7.00.
Take `Cn1cc(-n2ccc(=O)c(Cc3cccc(-c4ncc(CCC(C)(C)O)cn4)c3)n2)cn1` [Example 437, 3-{3-[5-(3-hydroxy-3-methylbutyl)pyrimidin-2-yl]benzyl}-1-(1-methyl-1H-pyrazol-4-yl)pyridazin-4(1H)-one]: the pIC50 was > 7.00.
The figure for `CCOc1cnc(-c2cccc(Sc3nn(-c4cnn(C)c4)ccc3=O)c2)nc1` [Example 756, 3-{[3-(5-Ethoxypyrimidin-2-yl)phenyl]sulfanyl}-1-(1-methyl-1H-pyrazol-4-yl)pyridazin-4(1H)-one] is 5.52 to 6.00; for `CCn1cnc(-c2cccc(Cc3nn(-c4cnn(C)c4)ccc3=O)c2)n1` [Example 708, 3-[3-(1-ethyl-1H-1,2,4-triazol-3-yl)benzyl]-1-(1-methyl-1H-pyrazol-4-yl)pyridazin-4(1H)-one] it is > 7.00; for `CCn1cc(-n2ccc(=O)c(Cc3cccc(-c4ncc(OCC5CCCO5)cn4)c3)n2)cn1` (racemic) [Example 310, rac-1-(1-ethyl-1H-pyrazol-4-yl)-3-{3-[5-(tetrahydrofaran-2-ylmethoxy)pyrimidin-2-yl]benzyl}pyridazin-4(1H)-one] it is > 7.00.
The figure for `CCOc1cnc(-c2cccc(C(C)c3nn(-c4cnn(CCO)c4)ccc3=O)c2)nc1` (single isomer, unassigned) [Example 256, 3-{(1R or S)-1-[3-(5-ethoxypyrimidin-2-yl)phenyl]ethyl}-1-[1-(2-hydroxyethyl)-1H-pyrazol-4-yl]pyridazin-4(1H)-one] is > 7.00.
The figure for `CCCOC(=O)Nc1cccc(Cc2nn(-c3ccncc3)ccc2=O)c1` [Example 30, propyl {3-[(4-oxo-1-pyridin-4-yl-1,4-dihydropyridazin-3-yl)methyl]phenyl}carbamate] is > 7.00; for `CC(c1cccc(-c2ncc(-c3cnn(C)c3)cn2)c1)c1nn(-c2cnn(C)c2)ccc1=O` (single isomer, unassigned) [Example 232, 1-(1-methyl-1H-pyrazol-4-yl)-3-[(1S or R)-1-{3-[5-(1-methyl-1H-pyrazol-4-yl)pyrimidin-2-yl]phenyl}ethyl]pyridazin-4(1H)-one] it is > 7.00; for `Cn1cc(-n2ccc(=O)c(Cc3cccc(-c4ncc(OCC(=O)OC(C)(C)C)cn4)c3)n2)cn1` [Example 287, tert-butyl [2-(3-{[1-(1-methyl-1H-pyrazol-4-yl)-4-oxo-1,4-dihydropyridazin-3-yl]methyl}phenyl)pyrimidin-5-yl]oxyacetate] it is > 7.00.
With `CC(C)COC(=O)Nc1cccc(Cc2nn(-c3cnn(CCO)c3)ccc2=O)c1` [Example 645, 2-methylpropyl [3-({1-[1-(2-hydroxyethyl)-1H-pyrazol-4-yl]-4-oxo-1,4-dihydropyridazin-3-yl}methyl)phenyl] carbamate], the pIC50 is > 7.00.
The result for `CCOC(=O)Nc1cccc(Cc2nn(-c3cccc(OCC)c3)ccc2=O)c1` [Example 650, Ethyl(3-{[1-(3-ethoxyphenyl)-4-oxo-1,4-dihydropyridazin-3-yl]methyl}phenyl)carbamate] reads 6.00 to 7.00.
